“And” between values parts separate entries of the source, which are not always exact repeats. Identical values can stand only once. Like-named read-outs stand apart in the source and are kept apart here.
How the values were obtained:
[1] = target: T1, CB1 cannabinoid receptor (Rattus norvegicus, UniProt P20272); assay: CB1 receptor binding, rat forebrain membranes, [3H] CP-55,940 displacement; conditions: for Ki: 0.8 nM [3H] CP-55,940; for selectivity CB1: ratio of CB2 Ki to CB1 Ki
T1 construct: membranes were prepared from rat forebrain membranes; from tissue; host or cells: rat forebrain
T1 sequence (P20272 whole entry): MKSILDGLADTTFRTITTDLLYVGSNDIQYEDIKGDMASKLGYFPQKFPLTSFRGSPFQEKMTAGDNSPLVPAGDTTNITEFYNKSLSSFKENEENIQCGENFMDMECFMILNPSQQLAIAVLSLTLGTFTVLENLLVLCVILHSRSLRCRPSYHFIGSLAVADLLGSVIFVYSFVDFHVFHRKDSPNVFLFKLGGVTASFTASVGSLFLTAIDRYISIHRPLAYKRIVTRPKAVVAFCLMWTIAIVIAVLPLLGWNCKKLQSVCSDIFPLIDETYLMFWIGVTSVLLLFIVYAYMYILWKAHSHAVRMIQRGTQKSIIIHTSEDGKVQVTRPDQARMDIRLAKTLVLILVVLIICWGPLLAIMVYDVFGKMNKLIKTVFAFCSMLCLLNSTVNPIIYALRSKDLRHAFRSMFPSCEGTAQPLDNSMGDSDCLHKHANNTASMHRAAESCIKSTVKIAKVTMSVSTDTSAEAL
Protocol: Some of the inventive analogs were tested for CB2 receptor binding affinity and for CB1 receptor affinity (to determine selectivity). […] The lower the Ki value the higher the binding affinity. […]
Membranes, previously frozen at −80° C., were thawed on ice. To the stirred suspension was added three volumes of TME (25 mM Tris-HCl buffer, 5 mM MgCl2 and 1 mM EDTA) at a pH 7.4. The suspension was incubated at 4° C. for 30 min. At the end of the incubation, the membranes were pelleted and washed three times with TME.
(§1) The treated membranes were subsequently used in the binding assay described below. Approximately 30 μg of membranes were incubated in silanized 96-well microtiter plate with TME containing 0.1% essentially fatty acid-free bovine serum albumin (BSA), 0.8 nM [^3H] […] Radioactivity was detected using MicroScint 20 scintillation cocktail added directly to the dried filterplates, and the filterplates were counted using a Packard Instruments Top-Count. […] Data collected from three independent experiments performed with duplicate determinations was normalized between 100% and 0% specific binding for [^3H] […] The normalized data was analyzed using a 4-parameter nonlinear logistic equation to yield IC50 values.

[2] = target: T2, CB2 receptor (Mus musculus, UniProt P47936); assay: CB2 receptor binding, mouse spleen membranes, same manner as the CB1 binding assay; conditions: for Ki: [3H] CP-55,940; for selectivity CB2: ratio of CB1 Ki to CB2 Ki
T2 construct: membranes were prepared from frozen mouse spleen; from tissue; host or cells: mouse spleen
T2 sequence (P47936 whole entry): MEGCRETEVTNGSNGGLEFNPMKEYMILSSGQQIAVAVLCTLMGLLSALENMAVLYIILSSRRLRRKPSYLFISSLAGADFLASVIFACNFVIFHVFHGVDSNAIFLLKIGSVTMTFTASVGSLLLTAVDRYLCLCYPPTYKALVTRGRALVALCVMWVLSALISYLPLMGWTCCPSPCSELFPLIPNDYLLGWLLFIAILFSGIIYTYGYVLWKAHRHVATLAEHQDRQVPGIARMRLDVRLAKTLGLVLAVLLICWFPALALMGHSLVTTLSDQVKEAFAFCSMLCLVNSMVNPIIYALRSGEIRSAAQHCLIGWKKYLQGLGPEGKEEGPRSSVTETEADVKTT
Protocol: Some of the inventive analogs were tested for CB2 receptor binding affinity and for CB1 receptor affinity (to determine selectivity). […] The lower the Ki value the higher the binding affinity.
as §1
Silanized centrifuge tubes were used throughout to minimize receptor loss due to adsorption. The CB2 binding assay was conducted in the same manner as for the CB1 binding assay. The binding affinities (Ki) were also expressed in nanomoles (nM).

[3] = rat forebrain membranes, read-out: affinities Ki CB1
[4] = mouse spleen membranes, read-out: affinities Ki CB2
[5] = affinities Ki CB1, rat forebrain membranes
[6] = affinities Ki CB2, mouse spleen membranes

SMILES	Ki [1, 3] [nM]	selectivity CB1 [1]	Ki [2, 4] [nM]	Ki [1, 5]	Ki [2, 6]	selectivity CB2 [2]
Cn1nnc(-c2ccc(-c3c(CO)c(C(=O)NC4CCCCC4)nn3-c3ccc(Cl)cc3Cl)cc2)n1 [Compound 2-12]	37	1	36.5	–	–	–
Cc1c(C(=O)NN2CCCCC2)nn(-c2ccc(Cl)cc2Cl)c1-c1ccc(-c2ccc(Cl)cc2)cc1 [Compound 1-2]	5.8	274	1590	–	–	–
O=C(NN1CCCCC1)c1nn(-c2ccc(Cl)cc2Cl)c(-c2ccc(-c3cccnc3)cc2)c1CF [Compound 1-6]	15.1	128	1930	–	–	–
Cc1c(C(=O)NC2C3CC4CC(C3)CC2C4)nn(CCCCCCl)c1-c1ccccc1 (centres unmarked) [Compound 4-4]	–	–	–	7.64 nM and 7.6 nM	8.46 nM and 8.5 nM	–
CCOCc1c(C(=O)NC2CCCCC2)nn(-c2ccc(Cl)cc2Cl)c1-c1ccc(Br)cc1 [Compound 1-10]	54	16	842	–	–	–
COCc1c(C(=O)NC2CCCCC2)nn(-c2ccc(Cl)cc2Cl)c1-c1ccc(I)cc1 [Compound 1-22]	15	45	675	–	–	–
CCOCc1c(C(=O)NN2CCCCC2)nn(-c2ccc(Cl)cc2Cl)c1-c1ccc(Br)cc1 [Compound 1-12]	46	11	490	–	–	–
Cc1c(C(=O)NCC2CCC3CC2C3(C)C)nn(CCCCCCl)c1-c1ccccc1 (centres unmarked) [Compound 4-8]	–	–	–	1.22 nM and 1.2 nM	0.615 nM and 0.6 nM	2
Cc1c(C(=O)NCC23CC4CC(CC(C4)C2)C3)nn(CCCCCCl)c1-c1ccccc1 [Compound 4-5]	–	–	–	19.8 nM and 20 nM	6.65 nM and 6.6 nM	3
Cc1c(C(=O)NN2CCCCC2)nn(-c2ccc(Cl)cc2Cl)c1-c1ccc(-c2nnn(C)n2)cc1 [Compound 2-3]	6	86.2	517	–	–	–
Cc1c(NC(=O)NC2CCCCC2)nn(-c2ccc(Cl)cc2Cl)c1-c1ccc(Br)cc1 [Compound 3-8]	6.8	635.2	4320	–	–	–
Cc1c(CCC2CCCCC2)nn(-c2ccc(Cl)cc2Cl)c1-c1ccc(Br)cc1 [Compound 1-27]	1040	25.3	26400	–	–	–
CN(C(=O)c1nn(-c2ccc(Cl)cc2Cl)c(-c2ccc(-c3cccnc3)cc2)c1CO)C1CCCCC1 [Compound 3-4]	227	3.3	759	–	–	–
COCc1c(C(=O)NC2CCCCC2)nn(-c2ccc(Cl)cc2Cl)c1-c1ccc(Br)cc1 [Compound 1-9]	4	124	495	–	–	–
Cc1c(C(O)C(O)c2ccccc2)nn(-c2ccc(Cl)cc2Cl)c1-c1ccc(Br)cc1 (centres unmarked) [Compound 1-28]	1070	3.7	–	–	3930 nM	–
Cc1c(C(=O)NC23CC4CC(CC(C4)C2)C3)nn(CCCCCN=[N+]=[N-])c1-c1ccccc1 [Compound 4-11]	–	–	–	3.96 nM and 4 nM	0.965 nM and 1 nM	4
Cc1c(NC(=O)N(C)C2CCCCC2)nn(-c2ccc(Cl)cc2Cl)c1-c1ccc(Br)cc1 [Compound 3-11]	29	31.6	917	–	–	–
Cc1c(C(=O)NC23CC4CC(CC(C4)C2)C3)nn(CCCCCCl)c1-c1ccccc1 [Compound 4-2]	–	–	–	1.42 nM and 1.4 nM	0.704 nM and 0.8 nM	1.8
O=C(Nc1nn(-c2ccc(Cl)cc2Cl)c(-c2ccc(Br)cc2)c1CO)NC1CCCCC1 [Compound 2-19]	9	546.7	4920	–	–	–
Cc1c(C(=O)NN2CCCCC2)nn(-c2ccc(Cl)cc2Cl)c1-c1ccc(C(N)=S)cc1 [Compound 3-25]	86	1.5	127	–	–	–
O=C(NC1CCCCC1)c1nn(-c2ccc(Cl)cc2Cl)c(-c2ccc(Br)cc2)c1CBr [Compound 3-17]	46	75.5	3480	–	–	–
COCOCc1c(C(=O)NC2CCCCC2)nn(-c2ccc(Cl)cc2Cl)c1-c1ccc(Br)cc1 [Compound 1-13]	15	3.6	54	–	–	–
Cc1c(C(=O)NN2CCCCC2)nn(-c2ccc(Cl)cc2Cl)c1-c1ccc(-c2nnn[nH]2)cc1 [Compound 2-1]	455	1.5	702	–	–	–
